pIC50: −log10 of the molar value.
What was measured:
[1] = biological target: recombinant His-tag Wip1(2-420) protein (amino acids #2-420) (Homo sapiens (Human), UniProt O15297); assay: Wip1(2-420) phosphatase enzyme FDP assay; format: biochemical; conditions: fluorescein diphosphate (FDP) substrate, RT 2 hours, fluorescence Ex485/Em535; read-out: WIP1 (Truncated 2-420) FDP Assay: IC50
[2] = biological target: recombinant His-tag Wip1 full length protein (amino acids #1-605) (Homo sapiens (Human), UniProt O15297); assay: Wip1 full length phosphatase enzyme FDP assay; format: biochemical; conditions: fluorescein diphosphate (FDP) substrate, RT 2 hours, fluorescence Ex485/Em535
Procedure: The Human Wip1 (2-420, aa 2-420) or Wip1 full length (aa 1-605) DNA sequence was codon optimized and synthesized by Genscript for insect cell expression. The open reading frame of Wip1(2-420) with a N-terminal-His6 affinity tag followed by a TEV cleavage site was subcloned sites into the pFastBac1 expression vector. The recombinant bacmid DNA was transfected in Sf9 insect cells for baculovirus production. After 72 hours infection, the Sf9 cells were harvested by centrifugation and resuspended in lysis buffer containing 50 mM Tris/HCl, pH 8.0, 500 mM NaCl, 20% glycerol, Benzonase 0.5% CHAPS and Roche cOmplete™ EDTA free protease inhibitors. Cells were disrupted with microfluidizer and the debris was removed by centrifugation at 185,000 g for 1 hour. The supernatant was subjected to HisTrap FF for affinity purification. Proteins were eluted with a linear gradient of 0-500 mM imidazole in HisTrap buffer containing 50 mM Tris/HCl, pH 8.0, 500 mM NaCl and 20% glycerol, 0.05% CHAPS. The eluted protein was dialyzed against dialysis buffer (20 mM MES, 100 mM NaCl, 20% glycerol, 0.5 mM TCEP, 0.05% CHAPS) followed purification via HiTrap SP HP column. The protein was eluted with a gradient of 100 mM-2 M NaCl in dialysis buffer. His6-[…] was finally concentrated and loaded onto a size-exclusion column (NiLoad 16/600 Superdex 200 pg, GE Healthcare) pre-equilibrated with 50 mM MOPS (pH 7.5), 200 mM NaCl, 20% glycerol, 1 mM TCEP, 0.05% CHAPS and 0.1 mM EGTA. The peak fractions containing purified Nis6-Wip1(2-420) were pooled and concentrated to 1.0 mg/mL and flash frozen at −80° C.
Wip1 Length and Wip1(2-420) Phosphatase Enzyme FDP Assays.
Test compounds (252 mM stock in DMSO) were diluted 3 folds in series in DMSO and 1.2 μl per well were added into 384-well polypropylene black plates (Nunc). Twelve μl per well of Assay Buffer (100 mM NaCl, 50 mM MOPS, pH 7.5, 0.8 mM CHAPS, 0.1 mM EGTA, 30 mM MgCl2, 0.3 mM TCEP, 0.2 mg/mL BSA) was added followed by […] per well of 50.4 nM recombinant His-tag Wip1 full length protein (amino acids #1-605) or recombinant His-tag Wip1(2-420) protein (amino acids #2-420) in Assay Buffer and the plate was incubated at RT (22° C.) for 5 min. Ten mM of fluorescein diphosphate (FDP) in DMSO was diluted to […] in Assay Buffer and […] per well was added to the plate and incubated at RT (22° C.) for 2 hours. […] per well of 64.1 mM EDTA in water were added to stop the enzyme reaction. The plate was centrifuged at 1,200 rpm (Eppendorf 5810R Plate centrifuge) for 1 minute and fluorescence intensity (Ex485/Em535) was measured on Perkin Elmer Victor Reader. EC50 values were calculated using either Prism (GraphPad) or ActivityBase software (IDBS), The IC50 results are provided in Table M.

Sequence of recombinant His-tag Wip1(2-420) protein (amino acids #2-420) (O15297 2-420): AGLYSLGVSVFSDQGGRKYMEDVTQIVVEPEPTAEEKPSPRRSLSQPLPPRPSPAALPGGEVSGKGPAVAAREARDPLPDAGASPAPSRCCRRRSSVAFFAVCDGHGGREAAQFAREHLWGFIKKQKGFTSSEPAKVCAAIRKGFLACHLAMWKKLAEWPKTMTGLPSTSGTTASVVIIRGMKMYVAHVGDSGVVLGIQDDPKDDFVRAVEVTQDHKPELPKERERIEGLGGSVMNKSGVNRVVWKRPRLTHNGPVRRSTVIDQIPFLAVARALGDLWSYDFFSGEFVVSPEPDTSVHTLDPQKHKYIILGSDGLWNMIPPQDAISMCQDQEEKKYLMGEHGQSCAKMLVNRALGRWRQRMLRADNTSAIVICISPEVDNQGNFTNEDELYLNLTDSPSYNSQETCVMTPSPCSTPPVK
Sequence of recombinant His-tag Wip1 full length protein (amino acids #1-605) (O15297 whole entry, the tested form may be a part): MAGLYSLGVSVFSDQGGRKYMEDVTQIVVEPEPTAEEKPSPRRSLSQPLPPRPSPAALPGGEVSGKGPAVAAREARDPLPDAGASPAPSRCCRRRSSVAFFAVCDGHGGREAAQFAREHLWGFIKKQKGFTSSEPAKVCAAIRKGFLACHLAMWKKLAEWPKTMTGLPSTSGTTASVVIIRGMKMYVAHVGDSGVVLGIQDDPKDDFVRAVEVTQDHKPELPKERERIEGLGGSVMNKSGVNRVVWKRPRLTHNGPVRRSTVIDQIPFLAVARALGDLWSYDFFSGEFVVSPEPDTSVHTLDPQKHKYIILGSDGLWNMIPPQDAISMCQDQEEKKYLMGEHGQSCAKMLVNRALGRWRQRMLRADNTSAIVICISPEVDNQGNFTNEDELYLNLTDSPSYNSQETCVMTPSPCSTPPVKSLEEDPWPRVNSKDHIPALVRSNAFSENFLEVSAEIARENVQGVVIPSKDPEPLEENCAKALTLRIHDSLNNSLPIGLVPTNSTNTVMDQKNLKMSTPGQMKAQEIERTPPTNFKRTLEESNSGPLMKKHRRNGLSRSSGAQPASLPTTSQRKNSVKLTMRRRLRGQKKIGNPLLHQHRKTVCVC

SMILES	pIC50 [1]	pIC50 [2]
Cc1ncc(Cl)cc1N[C@@H](C)c1ccc(C(=O)N[C@@H](CC2CCCC2)C(=O)NC2CC3CCC(C2)O3)s1 (stereo partly drawn) [Compound 63, (2S)-2-({5-[(1S)-1-[(5-chloro-2-methylpyridin-3-yl)amino]ethyl]thiophen-2-yl}formamido)-3-cyclopentyl-N-{8-oxabicyclo[3.2.1]octan-3-yl}propanamide]	7.82	7.66
Cc1cc(NC(=O)[C@H](CCC(C)C)NC(=O)c2ccc([C@H](C)Nc3cc(Cl)cnc3C)s2)ccn1 [Compound 210, (2S)-2-({5-[(1S)-1-[(5-chloro-2-methylpyridin-3-yl)amino]ethyl]thiophen-2-yl}formamido)-5-methyl-N-(2-methylpyridin-4-yl)hexanamide]	8.15	8.00
Cc1ncc(Cl)cc1NC(C)c1ncc(C(=O)N[C@@H](CC2CCCC2)C(=O)NC2CC2)s1 (stereo partly drawn) [Compound 280, (2S)-2-[(2-{1-[(5-chloro-2-methylpyridin-3-yl)amino]ethyl}-1,3-thiazol-5-yl)formamido]-3-cyclopentyl-N-cyclopropylpropanamide]	7.39	7.15
Cc1ncc(Cl)cc1NC(C)c1ccc(C(=O)N[C@@H](CC2CCCC2)C(=O)NC23CC(C2)C3)s1 (stereo partly shown) [Compound 117]	7.39	7.15
CN(Cc1ncc(C(=O)N[C@@H](CC2CCCCC2)C(=O)Nc2ccncc2)s1)c1cncc(Cl)c1 [Compound 301, 2-[[(5-Chloro-3-pyridyl)-methyl-amino]methyl]-N-[(1S)-1-(cyclohexylmethyl)-2-oxo-2-(4-pyridylamino)ethyl]thiazole-5-carboxamide]	7.38	7.64
Cc1ncc(Cl)cc1N[C@@H](C)c1ccc(C(=O)N[C@@H](CC2CCCC2)C(=O)NC2(C#N)CC2)s1 [Compound 34, (2S)-2-({5-[(1S)-1-[(5-chloro-2-methylpyridin-3-yl)amino]ethyl]thiophen-2-yl}formamido)-N-(1-cyanocyclopropyl)-3-cyclopentylpropanamide]	7.77	7.47
Cc1ncc(Cl)cc1N[C@H](C)c1ccc(C(=O)N[C@@H](CC2CCCC2)C(=O)NC23CC(C2)C3)s1 [Compound 12, (2S)-N-{bicyclo[1.1.1]pentan-1-yl}-2-({5-[(1R)-1-[(5-chloro-2-methylpyridin-3-yl)amino]ethyl]thiophen-2-yl}formamido)-3-cyclopentylpropanamide]	6.83	6.45

Now from value to compound:

pIC50 [1]	pIC50 [2]	SMILES
6.96	6.86	Cc1ncc(Cl)cc1N[C@H](C)c1ccc(C(=O)N[C@@H](CC2CCCC2)C(=O)N[C@H]2CC2(F)F)s1 [Compound 21, (2S)-2-({5-[(1R)-1-[(5-chloro-2-methylpyridin-3-yl)amino]ethyl]thiophen-2-yl}formamido)-3-cyclopentyl-N-[(1S)-2,2-difluorocyclopropyl]propanamide]
7.96	7.96	CC[C@H](Nc1cc(Cl)cnc1C)c1ccc(C(=O)N[C@@H](CC2CCCC2)C(=O)N[C@@H]2CC2(F)F)s1 [Compound 47, (2S)-2-({5-[(1S)-1-[(5-chloro-2-methylpyridin-3-yl)amino]propyl]thiophen-2-yl}formamido)-3-cyclopentyl-N-[(1R)-2,2-difluorocyclopropyl]propanamide]
6.91	6.77	CC[C@@H](Nc1cc(Cl)cnc1C)c1ccc(C(=O)N[C@@H](CC2CCCC2)C(=O)N[C@@H]2CC2(F)F)s1 [Compound 50, (2S)-2-({5-[(1R)-1-[(5-chloro-2-methylpyridin-3-yl)amino]propyl]thiophen-2-yl}formamido)-3-cyclopentyl-N-[(1R)-2,2-difluorocyclopropyl]propanamide]
8.22	8.00	Cc1ncc(Cl)cc1N[C@@H](C)c1ccc(C(=O)N[C@@H](CC2CCCC2)C(=O)N[C@@H]2C[C@@H]2F)s1 [Compound 30, (2S)-2-({5-[(1S)-1-[(5-chloro-2-methylpyridin-3-yl)amino]ethyl]thiophen-2-yl}formamido)-3-cyclopentyl-N-[(1R,2S)-2-fluorocyclopropyl]propanamide]

— patent publication US20240116910A1, “Heterocycles as WIP1 Inhibitors” (PMV Pharmaceuticals, Inc., priority 2022, published 2024)
